# According to publication PMC6572064, “Discovery of 2-(1-(3-(4-Chloroxyphenyl)-3-oxo- propyl)pyrrolidine-3-yl)-1H-benzo[d]imidazole-4-carboxamide: A Potent Poly(ADP-ribose) Polymerase (PARP) Inhibitor for Treatment of Cancer” (Molecules, 2019):
# Read-outs that look alike come from different tables or passages of the source.
# Assays:
# [1] = test system: CAPAN-1 (a BRCA-2-mutated pancreatic cancer cell line); assay: Cell proliferation assay, three-day, CellTiter-Glo, CAPAN-1; type: cell-based; conditions: Homo sapiens; for IC50: CAPAN-1, 72 h, CellTiter-Glo, read-out: CAPAN-1 IC50; for inhibition at 0.00508 µM: CAPAN-1, Conc. 0.00508 uM; for inhibition at 0.0152 µM: CAPAN-1, Conc. 0.0152 uM; for inhibition at 0.0457 µM: CAPAN-1, Conc. 0.0457 uM; for inhibition at […]: CAPAN-1, Conc. 0.14 uM; for inhibition at 0.41 µM: CAPAN-1, Conc. 0.41 uM; for inhibition at 1.23 µM: CAPAN-1, Conc. 1.23 uM; for inhibition at 3.7 µM: CAPAN-1, Conc. 3.70 uM; for inhibition at 11.11 µM: CAPAN-1, Conc. 11.11 uM; for inhibition at 33.33 µM: CAPAN-1, Conc. 33.33 uM; for inhibition at 100 µM: CAPAN-1, Conc. 100.00 uM
# Summary of the method: (§1)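 Cells seeded overnight in 384-well plates, then exposed to compounds (DMSO stock diluted in medium) for 72 h at 37 °C, 5% CO2. Viability read as CellTiter-Glo luminescence after 60 min at room temperature.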
# [2] = target: T1, PARP-2 (Homo sapiens, UniProt Q9UGN5); assay: PARP-2 inhibition assay (PARP-2 Chemiluminescent Assay Kit, BPS Bioscience); type: biochemical; conditions: 10 nM compound
# T1 construct: purchased BPS Bioscience 80552
# T1 sequence (Q9UGN5 whole entry): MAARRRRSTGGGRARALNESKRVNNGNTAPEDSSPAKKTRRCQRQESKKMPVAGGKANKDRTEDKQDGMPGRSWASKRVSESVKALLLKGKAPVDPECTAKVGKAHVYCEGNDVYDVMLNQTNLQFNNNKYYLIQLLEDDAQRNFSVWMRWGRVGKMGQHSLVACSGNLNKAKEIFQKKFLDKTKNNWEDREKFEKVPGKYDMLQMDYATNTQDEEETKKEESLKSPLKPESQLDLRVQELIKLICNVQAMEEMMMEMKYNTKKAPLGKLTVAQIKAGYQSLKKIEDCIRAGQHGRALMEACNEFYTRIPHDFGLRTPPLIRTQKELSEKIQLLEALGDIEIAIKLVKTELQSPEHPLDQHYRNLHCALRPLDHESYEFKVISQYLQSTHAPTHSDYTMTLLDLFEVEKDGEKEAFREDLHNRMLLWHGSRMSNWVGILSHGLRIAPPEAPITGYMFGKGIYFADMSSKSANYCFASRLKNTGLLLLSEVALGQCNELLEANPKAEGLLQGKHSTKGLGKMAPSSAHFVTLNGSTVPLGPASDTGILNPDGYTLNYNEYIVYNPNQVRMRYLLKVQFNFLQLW
# Description: (§2) The PARP-1 and PARP-2 inhibition assays were performed in outsourcing, by a CRO company, Shanghai Medicilon Inc. (Shanghai, China). […] Briefly, PARP-1 or PARP-2 biotinylated substrate was incubated with compounds or solvent control at varying concentrations and an assay buffer containing the PARP-1 or PARP-2 enzyme.
# [3] = target: T2, PARP-1 (Homo sapiens, UniProt P09874); assay: PARP-1 inhibition assay (PARP-1 Chemiluminescent Assay Kit, BPS Bioscience); type: biochemical; conditions: 10 nM compound
# T2 construct: purchased BPS Bioscience 80569
# T2 sequence (P09874 whole entry): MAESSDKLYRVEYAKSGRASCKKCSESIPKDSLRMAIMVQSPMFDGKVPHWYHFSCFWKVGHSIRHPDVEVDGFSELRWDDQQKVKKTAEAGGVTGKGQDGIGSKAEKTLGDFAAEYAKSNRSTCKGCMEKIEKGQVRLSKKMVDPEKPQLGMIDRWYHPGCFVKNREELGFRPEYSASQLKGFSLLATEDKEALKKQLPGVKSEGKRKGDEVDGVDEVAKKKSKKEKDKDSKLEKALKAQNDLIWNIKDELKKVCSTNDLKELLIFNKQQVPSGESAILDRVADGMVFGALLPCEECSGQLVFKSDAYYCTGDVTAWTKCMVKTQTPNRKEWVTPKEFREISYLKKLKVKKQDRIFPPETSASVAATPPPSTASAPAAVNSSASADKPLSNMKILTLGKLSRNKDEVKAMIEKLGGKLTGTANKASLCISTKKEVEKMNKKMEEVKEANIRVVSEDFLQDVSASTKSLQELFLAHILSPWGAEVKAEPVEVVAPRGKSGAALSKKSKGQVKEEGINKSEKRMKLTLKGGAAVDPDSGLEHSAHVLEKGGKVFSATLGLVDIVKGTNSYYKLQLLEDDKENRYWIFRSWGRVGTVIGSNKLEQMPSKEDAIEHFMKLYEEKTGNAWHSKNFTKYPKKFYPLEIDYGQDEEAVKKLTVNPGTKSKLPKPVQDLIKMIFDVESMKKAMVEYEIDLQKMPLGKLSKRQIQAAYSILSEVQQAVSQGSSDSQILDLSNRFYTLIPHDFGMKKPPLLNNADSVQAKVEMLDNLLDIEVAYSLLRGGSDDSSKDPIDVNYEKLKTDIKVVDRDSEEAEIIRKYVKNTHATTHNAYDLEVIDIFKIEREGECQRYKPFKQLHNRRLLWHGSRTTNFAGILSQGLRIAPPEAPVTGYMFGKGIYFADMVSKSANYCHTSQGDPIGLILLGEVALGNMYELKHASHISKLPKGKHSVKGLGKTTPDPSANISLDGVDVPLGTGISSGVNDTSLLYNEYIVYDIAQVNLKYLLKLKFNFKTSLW
# Description: as §2
# [4] = test system: MDA-MB-436 (a BRCA-1-mutated breast cancer cell line); assay: Cell proliferation assay, three-day, CellTiter-Glo, MDA-MB-436; type: cell-based; conditions: Homo sapiens; for inhibition at 0.00508 µM: MDA-MB-436, MDA-MB-436, Conc. 0.00508 uM; for inhibition at 0.0152 µM: MDA-MB-436, MDA-MB-436, Conc. 0.0152 uM; for inhibition at 0.0457 µM: MDA-MB-436, MDA-MB-436, Conc. 0.0457 uM; for inhibition at 0.41 µM: MDA-MB-436, MDA-MB-436, Conc. 0.41 uM; for inhibition at 1.23 µM: MDA-MB-436, MDA-MB-436, Conc. 1.23 uM; for inhibition at 3.7 µM: MDA-MB-436, MDA-MB-436, Conc. 3.70 uM; for inhibition at 11.11 µM: MDA-MB-436, MDA-MB-436, Conc. 11.11 uM; for inhibition at 33.33 µM: MDA-MB-436, MDA-MB-436, Conc. 33.33 uM; for inhibition at 100 µM: MDA-MB-436, MDA-MB-436, Conc. 100.00 uM; for IC50: MDA-MB-436, 72 h, CellTiter-Glo, read-out: MDA-MB-436 IC50
# Summary of the method: as §1
# [5] = supplement sheet, read-out: 10 nM inhibition% PAPR-2
# [6] = read-out: PARP-2 Inhibition % (10 nM)
# [7] = supplement sheet, read-out: 10 nM inhibition% PAPR-1
# [8] = read-out: PARP-1 Inhibition % (10 nM)
compound,measurement,setting,value
"NCCN1CCC(c2nc3c(C(N)=O)cccc3[nH]2)C1 (stereo not shown) [Compound 5cm, 2-(1-(2-Aminoethyl)pyrrolidin-3-yl)-1H-benzo[d]imidazole-4-carboxamide]",IC50,[1],> 100 µM
same,inhibition at 0.00508 µM,"[1]; replicate 1, read-out: Inh % 1",-3.2%
same,inhibition at 0.00508 µM,"[1]; replicate 2, read-out: Inh % 2",4.5%
same,inhibition at 0.0152 µM,"[1]; replicate 1, read-out: Inh % 1",-3%
same,inhibition at 0.0152 µM,"[1]; replicate 2, read-out: Inh % 2",-13.2%
same,inhibition at 0.0457 µM,"[1]; replicate 1, read-out: Inh % 1",-3.1%
same,inhibition at 0.0457 µM,"[1]; replicate 2, read-out: Inh % 2",-9.3%
same,inhibition at […],"[1]; replicate 1, read-out: Inh % 1",0.182%
same,inhibition at […],"[1]; replicate 2, read-out: Inh % 2",-8.2%
same,inhibition at 0.41 µM,"[1]; replicate 1, read-out: Inh % 1",4%
same,inhibition at 0.41 µM,"[1]; replicate 2, read-out: Inh % 2",-2.2%
same,inhibition at 1.23 µM,"[1]; replicate 1, read-out: Inh % 1",-2.5%
same,inhibition at 1.23 µM,"[1]; replicate 2, read-out: Inh % 2",-0.9%
same,inhibition at 3.7 µM,"[1]; replicate 1, read-out: Inh % 1",0.8%
same,inhibition at 3.7 µM,"[1]; replicate 2, read-out: Inh % 2",2.3%
same,inhibition at 11.11 µM,"[1]; replicate 1, read-out: Inh % 1",-3.4%
same,inhibition at 11.11 µM,"[1]; replicate 2, read-out: Inh % 2",4.2%
same,inhibition at 33.33 µM,"[1]; replicate 1, read-out: Inh % 1",-1.1%
same,inhibition at 33.33 µM,"[1]; replicate 2, read-out: Inh % 2",-7.7%
same,inhibition at 100 µM,"[1]; replicate 1, read-out: Inh % 1",0.459%
same,inhibition at 100 µM,"[1]; replicate 2, read-out: Inh % 2",-6%
same,inhibition at 0.01 µM,[2]; [5],32.8%
same,inhibition at 0.01 µM,[2]; [6],32.8%
same,inhibition at 0.01 µM,[3]; [7],24.8%
same,inhibition at 0.01 µM,[3]; [8],24.8%
same,inhibition at 0.00508 µM,"[4]; replicate 1, read-out: Inh % 1",-8.5%
same,inhibition at 0.00508 µM,"[4]; replicate 2, read-out: Inh % 2",-9.3%
same,inhibition at 0.0152 µM,"[4]; replicate 1, read-out: Inh % 1",1.1%
same,inhibition at 0.0152 µM,"[4]; replicate 2, read-out: Inh % 2",-4.9%
same,inhibition at 0.0457 µM,"[4]; replicate 1, read-out: Inh % 1",-11.2%
same,inhibition at 0.0457 µM,"[4]; replicate 2, read-out: Inh % 2",-10.5%
same,inhibition at 0.41 µM,"[4]; replicate 1, read-out: Inh % 1",-6.2%
same,inhibition at 0.41 µM,"[4]; replicate 2, read-out: Inh % 2",-16.8%
same,inhibition at 1.23 µM,"[4]; replicate 1, read-out: Inh % 1",-5.3%
same,inhibition at 1.23 µM,"[4]; replicate 2, read-out: Inh % 2",-11.1%
same,inhibition at 3.7 µM,"[4]; replicate 1, read-out: Inh % 1",-4.9%
same,inhibition at 3.7 µM,"[4]; replicate 2, read-out: Inh % 2",-6.8%
same,inhibition at 11.11 µM,"[4]; replicate 1, read-out: Inh % 1",-3.6%
same,inhibition at 11.11 µM,"[4]; replicate 2, read-out: Inh % 2",-6.5%
same,inhibition at 33.33 µM,"[4]; replicate 1, read-out: Inh % 1",3%
same,inhibition at 33.33 µM,"[4]; replicate 2, read-out: Inh % 2",-4.3%
same,inhibition at 100 µM,"[4]; replicate 1, read-out: Inh % 1",16.7%
same,inhibition at 100 µM,"[4]; replicate 2, read-out: Inh % 2",7.9%
same,IC50,[4],> 100 µM
"NC(=O)c1cccc2[nH]c(C3CCN(CCCNC(=O)c4ccccc4)C3)nc12 (stereo not shown) [Compound 5cn, 2-(1-(3-Benzamidopropyl)pyrrolidin-3-yl)-1H-benzo[d]imidazole-4-carboxamide]",IC50,[1],> 100 µM
same,inhibition at 0.00508 µM,"[1]; replicate 1, read-out: Inh % 1",9.5%
same,inhibition at 0.00508 µM,"[1]; replicate 2, read-out: Inh % 2",-3.8%
same,inhibition at 0.0152 µM,"[1]; replicate 1, read-out: Inh % 1",-9.3%
same,inhibition at 0.0152 µM,"[1]; replicate 2, read-out: Inh % 2",-9.4%
same,inhibition at 0.0457 µM,"[1]; replicate 1, read-out: Inh % 1",1%
same,inhibition at 0.0457 µM,"[1]; replicate 2, read-out: Inh % 2",6.5%
same,inhibition at […],"[1]; replicate 1, read-out: Inh % 1",4.6%
same,inhibition at […],"[1]; replicate 2, read-out: Inh % 2",-10%
same,inhibition at 0.41 µM,"[1]; replicate 1, read-out: Inh % 1",-2.8%
same,inhibition at 0.41 µM,"[1]; replicate 2, read-out: Inh % 2",-4.1%
same,inhibition at 1.23 µM,"[1]; replicate 1, read-out: Inh % 1",3.1%
same,inhibition at 1.23 µM,"[1]; replicate 2, read-out: Inh % 2",-3.2%
same,inhibition at 3.7 µM,"[1]; replicate 1, read-out: Inh % 1",5.2%
same,inhibition at 3.7 µM,"[1]; replicate 2, read-out: Inh % 2",-3%
same,inhibition at 11.11 µM,"[1]; replicate 1, read-out: Inh % 1",2.8%
same,inhibition at 11.11 µM,"[1]; replicate 2, read-out: Inh % 2",-7.6%
same,inhibition at 33.33 µM,"[1]; replicate 1, read-out: Inh % 1",5.2%
same,inhibition at 33.33 µM,"[1]; replicate 2, read-out: Inh % 2",2%
same,inhibition at 100 µM,"[1]; replicate 1, read-out: Inh % 1",27.8%
same,inhibition at 100 µM,"[1]; replicate 2, read-out: Inh % 2",14.3%
same,inhibition at 0.01 µM,[2]; [5],39.1%
same,inhibition at 0.01 µM,[2]; [6],39.1%
same,inhibition at 0.01 µM,[3]; [7],19.4%
same,inhibition at 0.01 µM,[3]; [8],19.4%
same,inhibition at 0.00508 µM,"[4]; replicate 1, read-out: Inh % 1",1.6%
same,inhibition at 0.00508 µM,"[4]; replicate 2, read-out: Inh % 2",-5.1%
same,inhibition at 0.0152 µM,"[4]; replicate 1, read-out: Inh % 1",-1.4%
same,inhibition at 0.0152 µM,"[4]; replicate 2, read-out: Inh % 2",-3.5%
same,inhibition at 0.0457 µM,"[4]; replicate 1, read-out: Inh % 1",-9.2%
same,inhibition at 0.0457 µM,"[4]; replicate 2, read-out: Inh % 2",-11%
same,inhibition at 0.41 µM,"[4]; replicate 1, read-out: Inh % 1",-8.3%
same,inhibition at 0.41 µM,"[4]; replicate 2, read-out: Inh % 2",-13.4%
same,inhibition at 1.23 µM,"[4]; replicate 1, read-out: Inh % 1",-3%
same,inhibition at 1.23 µM,"[4]; replicate 2, read-out: Inh % 2",-5.3%
same,inhibition at 3.7 µM,"[4]; replicate 1, read-out: Inh % 1",-5.2%
same,inhibition at 3.7 µM,"[4]; replicate 2, read-out: Inh % 2",-8.2%
same,inhibition at 11.11 µM,"[4]; replicate 1, read-out: Inh % 1",-2.1%
same,inhibition at 11.11 µM,"[4]; replicate 2, read-out: Inh % 2",-9.2%
same,inhibition at 33.33 µM,"[4]; replicate 1, read-out: Inh % 1",12.1%
same,inhibition at 33.33 µM,"[4]; replicate 2, read-out: Inh % 2",1.5%
same,inhibition at 100 µM,"[4]; replicate 1, read-out: Inh % 1",21.7%
same,inhibition at 100 µM,"[4]; replicate 2, read-out: Inh % 2",20.8%
same,IC50,[4],> 100 µM
